Key:
[1] = target: T1, pinoresinol/lariciresinol reductase (Forsythia intermedia, UniProt P93143); settings: incubation with (±)-pinoresinols in presence of NADPH; cited from earlier work
T1 construct: host or cells: E. coli, pSBETa vector
T1 sequence (P93143 1-312): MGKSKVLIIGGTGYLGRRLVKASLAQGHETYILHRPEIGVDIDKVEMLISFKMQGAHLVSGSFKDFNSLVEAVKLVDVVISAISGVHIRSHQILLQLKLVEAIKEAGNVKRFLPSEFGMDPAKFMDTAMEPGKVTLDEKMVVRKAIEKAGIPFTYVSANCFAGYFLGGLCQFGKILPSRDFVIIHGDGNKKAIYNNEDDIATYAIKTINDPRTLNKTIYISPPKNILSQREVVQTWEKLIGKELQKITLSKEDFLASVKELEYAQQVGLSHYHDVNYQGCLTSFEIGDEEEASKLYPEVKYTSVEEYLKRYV

[2] = target: HIV reverse transcriptase (Human immunodeficiency virus type 1 group M subtype B, UniProt P04585); settings: cited from earlier work
[3] = test system: cAMP-phosphodiesterase; settings: cited from earlier work
[4] = target: T2, secoisolariciresinol dehydrogenase (Forsythia intermedia, UniProt Q94KL7, F122L/G175A/I11F); assay: Dehydrogenase activity of recombinant enzyme expressed in E. coli; format: biochemical; settings: crude supernate of E. coli expressing DEHY133
T2 construct: The dehydrogenase coding region was also excised using the Nde I sites at the 5′ and 3′ ends and cloned into the SBET vector; made in house; host or cells: E. coli B834(DE3), SBET vector
Experimental: (§1) Secoisolarciresinol dehydrogenase activity was assayed by monitoring the formation of (−)-[9′-^3H2]matairesinol. Each assay consisted of NAD (50 mM in 0.1 M potassium phosphate buffer, pH 7, 5 μl), (±)-[9,9′-^3H2]secoisolariciresinols (28 nM, 130 MBq/mmol in ethanol, 5 μl) and buffer (50 mM Tris-HCl, pH 8.8, 470 μl ). The enzymatic reaction was initiated by addition of the enzyme preparation (20 μl). After 1 h incubation at 30° C. with shaking, the mixture was extracted with EtOAc (500 μl ×2) containing unlabelled (±)-matairesinols (200 μg) as radiochemical carriers. After centrifugation (13,800×g, 5 min) the EtOAc solubles were removed, evaporated to dryness in vacuo, reconstituted in MeOH:3% acetic acid in H2O (1:1, 200 μl), and an aliquot (20 μl) subjected to reversed-phase column chromatography. The elution conditions were as follows: linear gradient acetonitrile/3% acetic acid in H2O from 10:90 to 30:70 between 0 and 35 min; then to 5:95 in 5 min and finally isocratic at 5:95 for 5 min, at a flow rate of 1 ml min^−1, and detection at 280 nm. Fractions corresponding to matairesinol were individually collected, aliquots removed for liquid scintillation counting, and the remainder freeze-dried.
(§2) [9′-^3H2]Matairesinol (0.5 kBq), collected after reversed-phase column chromatography, was reduced with LiAlH4 to give [9′-^3H2]secoisolariciresinol (0.26 kBq).
(§3) The E. coli culture containing the dehydrogenase clone was grown at 37° C. in 25 ml of SOC Kn50 medium to an O.D. of 0.5. To this was added IPTG to give a final concentration of 0.5 mM and the culture was grown at 18° C. for an additional 20 h. The cells were pelleted at 600×g 4° C. 12 min, resuspended in 5 ml of 20 mM Tris-HCl pH 8.0, 5 mM DTT buffer and repelleted. The final bacterial pellet was resuspended in 200 μL of the above buffer and sonicated 4×15 sec using a Braun-Sonic 2000 sonicator set at maximal output of −0.64. The sample was then centrifuged 20,800 ×g 4° C. 15 min and the crude supernate was assayed for dehydrogenase activity. […] The clone SMDEHY631 (SEQ ID NO:9) was also expressed in E. coli in the foregoing manner.

[5] = test system: HIV-1; settings: cited from earlier work
[6] = target: T3, secoisolariciresinol dehydrogenase (Forsythia intermedia, UniProt Q94KL7); assay: Dehydrogenase activity of recombinant enzyme expressed in E. coli; format: biochemical; settings: protein produced in E. coli
T3 construct: The dehydrogenase coding region was also excised using the Nde I sites at the 5′ and 3′ ends and cloned into the SBET vector; made in house; host or cells: E. coli B834(DE3), SBET vector
Experimental: as §1, §2, §3

For COc1cc(C2OCC3C(c4ccc(O)c(OC)c4)OCC23)ccc1O (single isomer, unassigned; (+)) [(+)-pinoresinol], the “served as substrate of recombinant pinoresinol/lariciresinol reductase” value [1] is given as “served as substrates”.

For COc1cc(C[C@H]2CO[C@H](c3ccc(O)c(OC)c3)[C@H]2CO)ccc1O [(+)-lariciresinol], the “served as substrate of recombinant pinoresinol/lariciresinol reductase” value [1] is listed as “served as substrates”.

In the case of COc1cc(C[C@H]2C(=O)OC[C@@H]2Cc2ccc(OC)c(OC)c2)ccc1O [(−)-arctigenin], the “effectiveness against HIV due to reverse transcriptase inhibitory activity” value [2] is listed as “effective against HIV”.

For COc1cc(C[C@H]2COC(=O)[C@@H]2Cc2ccc(O)c(OC)c2)ccc1O [matairesinol], the “inhibition of cAMP-phosphodiesterase” value [3] is given as “inhibit”.

In the case of CC(Cc1ccc(O)c(O)c1)C(C)Cc1ccc(O)c(O)c1 (stereo not shown) [nordihydroguaiaretic acid], the “effectiveness against HIV due to reverse transcriptase inhibitory activity” value [2] is listed as “effective against HIV”.

With “(+)-secoisolariciresinol [(+)-antipode of secoisolariciresinol]” the “conversion as substrate into (−)-lactol and (−)-matairesinol” value [4] was “did not serve as a substrate”.

In the case of (−)-pinoresinol, the “served as substrate of recombinant pinoresinol/lariciresinol reductase” value [1] is listed as “not”.

For (−)-secoisolariciresinol, the “conversion as substrate into (−)-lactol and (−)-matairesinol” value [4] was “catalyzed the conversion”.

In the case of (−)-trachelogenin, the “effectiveness against HIV due to reverse transcriptase inhibitory activity” value [2] is given as “effective against HIV” and the “inhibition of in vitro replication of HIV-1” value [5] is given as “inhibits”.

B1: SMDEHY631: protein (SEQ ID NO:10) encoded by cDNA clone SEQ ID NO:9 (protein)
chain: MATSQLRTAFARRLEGKVALITGGASGVGEVTAKLFSQHGAKVAIADVQDELGHSVVEAIGLSNSTYIHCDVTNEDGVKNAVDNTVSTYGKLDIMFNNAGISDPYKPRVIDNEKADFERVLSVNVTGVFLFMKHAARIMVPARSGCIISTASLSSTMGGGSSHAYCGSKHAVLGLTRNLAVELGQFGIRVNCLSPFGLPTPLAKKFTGIENDEDLANGIERAGNLKGTKLRIEDVANAALFLASDEAQYVSGQNLFIDGGFSVCNSAIKLFQYPDS
modifications: Forsythia x intermedia
For B1, the “catalysis of conversion of (−)-secoisolariciresinol into (−)-matairesinol by protein of the clone” value (shortened to “catalysis”) [6] was “catalyzed the stereochemical conversion”.

B2: SMDEHY321: protein (SEQ ID NO:4) encoded by cDNA clone SEQ ID NO:3 (protein)
chain: MAATSQVLTAIARRLEGKVALITGGASGIGETTAKLFSQHGAKVAIADVQDELGHSVVEAIGTSNSTYIHCDVTNEDGVKNAVDNTVSTYGKLDIMFSNAGISDPNRPRIIDNEKADFERVFSVNVTGVFLCMKHAARVMIPARSGNIISTASLSSTMGGGSSHAYCGSKHAVLGLTRNLAVELGQFGIRVNCLSPFGLPTALGKKFSGIKNEEEFENVINFAGNLKGPKFNVEDVANAALYLASDEAKYVSGHNLFIDGGFSVCNSVIKVFQYPDS
modifications: Forsythia x intermedia
For B2, the “catalysis” value [6] was “catalyzed the stereochemical conversion”.

B3: SMDEHY133: protein (SEQ ID NO:2) encoded by engineered cDNA clone DEHY133 (SEQ ID NO:1) (protein)
chain: MQLRTAFARRLEGKVALITGGASGIGETTAKLFSQHGAKVAIADVQDELGHSVVEAIGTSNSTYIHCDVTNEDGVKNAVDNTVSTYGKLDIMFSNAGISDPNRPRIIDNEKADFERVLSVNVTGVFLCMKHAARVMIPARSGNIISTASLSSTMGGGSSHAYCGSKHAVLALTRNLAVELGQFGIRVNCLSPFGLPTALGKKFSGIKNEEEFENVINFAGNLKGPKFNVEDVANAALYLASDEAKYVSGHNLFIDGGFSVCNSVIKVFQYPDS
modifications: Forsythia x intermedia
In the case of B3, the “catalysis” value [6] is reported as “catalyzed the stereochemical conversion”.

Source: US6911330B1, “Recombinant secoisolariciciresinol dehydrogensase, and methods of use” (Washington State University Research Foundation, priority 1998, dated 2005)
